This note sets out measurements from patent US20050064485A1, “Multiplex binding and activity assays” (priority 2003, published 2005).

The target in series [1] is T1, Epidermal Growth Factor Receptor (EGFR) Tyrosine Kinase (Homo sapiens, UniProt P00533).
T1 construct: purchased PanVera, Madison Wis; P2628
Nature of the series: EGFR kinase multiplex FP/TR-RET library screen and follow-up titration. The format is biochemical. The conditions noted are these: two-fold dilution series.

Series [2] is described as follows: Precipitation of poorly correlating compounds in the EGFR kinase assay. The format is physicochemical. The settings on record: EGFR kinase assay conditions.
Series [3] addresses PTK labeled tracer F-ADE(pY)LIPQQS. Kind of series: FP direct binding, antibody titrated (10 nM to 9.8 pM) against 1 nM tracer.

T1 sequence (P00533 25-1210, species assumed): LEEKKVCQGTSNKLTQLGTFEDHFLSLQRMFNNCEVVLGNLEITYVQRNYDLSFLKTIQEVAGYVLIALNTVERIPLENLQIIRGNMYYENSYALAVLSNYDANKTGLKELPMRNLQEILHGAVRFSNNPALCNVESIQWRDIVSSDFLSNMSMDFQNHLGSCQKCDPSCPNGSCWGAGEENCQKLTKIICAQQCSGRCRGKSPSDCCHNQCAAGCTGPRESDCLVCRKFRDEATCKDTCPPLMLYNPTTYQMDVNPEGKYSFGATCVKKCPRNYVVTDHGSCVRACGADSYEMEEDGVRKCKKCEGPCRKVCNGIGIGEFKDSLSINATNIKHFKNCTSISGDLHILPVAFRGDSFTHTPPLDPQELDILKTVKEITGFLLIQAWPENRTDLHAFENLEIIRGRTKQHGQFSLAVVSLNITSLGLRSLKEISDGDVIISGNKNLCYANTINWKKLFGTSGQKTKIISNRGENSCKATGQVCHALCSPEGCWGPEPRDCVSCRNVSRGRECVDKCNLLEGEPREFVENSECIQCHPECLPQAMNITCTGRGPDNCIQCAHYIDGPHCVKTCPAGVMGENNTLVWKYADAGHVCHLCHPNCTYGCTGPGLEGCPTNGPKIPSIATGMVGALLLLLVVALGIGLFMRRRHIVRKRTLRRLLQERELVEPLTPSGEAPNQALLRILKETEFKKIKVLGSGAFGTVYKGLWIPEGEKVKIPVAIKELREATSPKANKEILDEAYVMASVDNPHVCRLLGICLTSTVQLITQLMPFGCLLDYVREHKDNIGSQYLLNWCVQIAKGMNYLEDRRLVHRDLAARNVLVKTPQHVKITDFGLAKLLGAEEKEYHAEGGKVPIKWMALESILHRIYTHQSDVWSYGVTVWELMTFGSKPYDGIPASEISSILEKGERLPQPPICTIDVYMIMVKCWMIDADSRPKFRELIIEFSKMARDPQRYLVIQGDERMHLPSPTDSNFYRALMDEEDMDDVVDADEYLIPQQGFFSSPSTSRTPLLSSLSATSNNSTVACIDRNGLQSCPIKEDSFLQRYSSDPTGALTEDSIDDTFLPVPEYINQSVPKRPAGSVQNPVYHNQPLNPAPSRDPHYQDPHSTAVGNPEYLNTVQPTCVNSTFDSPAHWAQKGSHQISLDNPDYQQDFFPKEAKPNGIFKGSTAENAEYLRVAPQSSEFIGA

As for `Oc1ccccc1O` [Pyrocatechol], in series [1], the inhibitor on re-assay entry is listed as “neither was seen to be an inhibitor”.
As for `NC(=O)c1cc(N2CC2)c([N+](=O)[O-])cc1[N+](=O)[O-]` [CB-1954, CB 1954], the inhibitor on re-assay entry in series [1] is “neither was seen to be an inhibitor”.
Regarding `CC(C)[C@@]1(NC(=O)[C@@H]2C=C3c4cccc5[nH]cc(c45)C[C@H]3N(C)C2)O[C@@]2(O)[C@@H]3CCCN3C(=O)[C@H](Cc3ccccc3)N2C1=O` [Ergocristine], the precipitation in assay entry in series [2] is reported as “precipitate”.
The molecule “Tb-chelate labeled PY72 (anti-phosphotyrosine) IgG antibody” came in with a concentration for a half-maximal effect (EC50) in series [3] of 1 nM.
For `O=C1Nc2ccc(I)cc2/C1=C/c1cc(Br)c(O)c(Br)c1` [GW5074], the precipitation in assay entry in series [2] was “precipitate”.

In general, EC50 refers to the midpoint of the concentration-response curve. Low values mean a more potent agent, high ones a less potent agent.
